Reference: patent publication US20260250318A1, “COMPOSITIONS AND METHODS FOR CROSSING THE BLOOD BRAIN BARRIER” (VOYAGER THERAPEUTICS, INC., priority 2022, published 2026)

Legend:
[1] = system: brains, heart, liver, muscle, and DRG of the NHPs; test: Maturation of TTM-001 and TTM-002 capsids, NGS enrichment in NHP tissues; type: in vivo; conditions: relative to AAV9 control
Outline: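 Variants carry mutations within and flanking the loop IV peptide insert: positions 450–466 were triplet-randomized, while positions 449–466 received low-frequency point mutations. The combined pool went into two NHPs, and each peptide was scored by NGS enrichment ratio against AAV9.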

brain = test: Matured TTM-001 and TTM-002 variants, NGS enrichment in mouse brain; type: in vivo, mice; conditions: relative to AAV9 control
[2] = NGS fold-enrichment of matured AAV capsid variants, NHP brain, RNA
[3] = NGS fold-enrichment of RNA, NHP brain
[4] = NGS fold-enrichment, DRG of NHPs
[5] = NGS fold-enrichment, NHP liver DNA
[6] = NGS fold-enrichment, NHP liver RNA
[7] = NGS fold-enrichment, NHP muscle
[8] = NGS fold-enrichment, RNA, brain of NHPs
[9] = NGS fold-enrichment, heart of NHPs
[10] = NGS fold-enrichment, liver DNA of NHPs
[11] = NGS fold-enrichment, liver RNA of NHPs
[12] = NGS fold-enrichment, muscle of NHPs
[13] = NGS fold-enrichment, brain of mice
[14] = NGS fold-enrichment, mouse brain

Sequence	Fold Enrichment relative to AAV9, Brain (NHP) [1, 2] [fold]	Fold Enrichment relative to AAV9, DRG (NHP) ([1]; NHP DRG) [fold]	Fold Enrichment relative to AAV9, Heart (NHP) ([1]; NHP heart) [fold]	Fold Enrichment relative to AAV9, Liver DNA (NHP) ([1]; NHP liver, DNA) [fold]	Fold Enrichment relative to AAV9, Liver RNA (NHP) ([1]; NHP liver, RNA) [fold]	Fold Enrichment relative to AAV9, Muscle (NHP) ([1]; NHP muscle) [fold]	Fold Enrichment relative to AAV9, Brain (Mouse) (brain; mouse brain) [fold]	Fold Enrichment relative to AAV9, Brain (NHP) [1, 3] [fold]	Fold Enrichment relative to AAV9, DRG (NHP) [1, 4] [fold]	Fold Enrichment relative to AAV9, DRG (NHP) ([1]; NGS fold-enrichment, NHP DRG) [fold]	Fold Enrichment relative to AAV9, Heart (NHP) ([1]; NGS fold-enrichment, NHP heart) [fold]	Fold Enrichment relative to AAV9, Liver DNA (NHP) [1, 5] [fold]	Fold Enrichment relative to AAV9, Liver RNA (NHP) [1, 6] [fold]	Fold Enrichment relative to AAV9, Muscle (NHP) [1, 7] [fold]	Fold Enrichment relative to AAV9, Brain (NHP) [1, 8] [fold]	Fold Enrichment relative to AAV9, Heart (NHP) [1, 9] [fold]	Fold Enrichment relative to AAV9, Liver DNA (NHP) [1, 10] [fold]	Fold Enrichment relative to AAV9, Liver RNA (NHP) [1, 11] [fold]	Fold Enrichment relative to AAV9, Muscle (NHP) [1, 12] [fold]	Fold Enrichment relative to AAV9, Brain (Mouse) (brain; [14]) [fold]	further results
KTGNGSGSPHSKAQIQQT	52.809	0.000	0.000	0.012	0.000	0.000	98.291														
KTVNGSGSPHSKAQNQLI								80.509	0.000	0.000	0.000	0.166	0.000	0.000	80.509	0.000	0.166	0.000	0.000	71.156	Fold Enrichment relative to AAV9, Brain (Mouse) (brain; [13]): 71.156 fold
KTIIGGGSPHSKAQNPQT	58.924	0.000	0.202	0.126	0.000	0.000	53.992														
KTDNGSGSPHSKAHNQQT								95.164	0.000	0.000	0.000	0.027	0.000	0.000	95.164	0.000	0.027	0.000	0.000	55.313	Fold Enrichment relative to AAV9, Brain (Mouse) (brain; [13]): 55.313 fold
KTINGHDSPHKTGQNQPP								77.357		0.000	0.149	0.096	0.000	0.000						8.865	
KTINGSGSPHSKAQVPPT	57.316	0.000	0.012	0.200	0.257	0.000	90.220														
KTEGKHDSPHKSGQNQQT								98.384		0.000	0.056	0.000	0.000	0.000						10.345	
KTFNGSGSPHSKAPNLQT								121.436	0.000	0.000	0.167	0.015	0.000	0.000	121.436	0.167	0.015	0.000	0.000	168.920	Fold Enrichment relative to AAV9, Brain (Mouse) (brain; [13]): 168.920 fold
KTFNGGGSPHSKAQYQQT	58.609	0.000	0.000	0.045	0.163	0.000	72.618														
KAINGSGSPHSKAQNAQT									0.000						69.651	0.000	0.142	0.023	0.000		Fold Enrichment relative to AAV9, Brain (Mouse) (brain; [13]): 72.160 fold
KTINGSGSPHSKARGLQT	52.275	0.000	0.000	1.425	1.235	0.036	169.881														
KTESGHDSPHKSGQNQQT								86.513		0.000	7.414	0.038	0.000	0.000						13.163	
KSINGHDSPHKSGQIQHT								87.598		0.000	0.480	0.347	0.714	0.000						13.872	
KTEPMSGSPHSKAQNQQT	50.960	0.203	0.000	0.415	1.816	0.000	126.322														
KTIKGSGSPHSKAQDLQT									0.000						63.260	0.000	0.218	0.000	0.000		Fold Enrichment relative to AAV9, Brain (Mouse) (brain; [13]): 58.576 fold
KTINGSGSPHSKAQVQQI	57.308	0.000	1.113	0.113	0.000	0.000	61.957														
